This is an account of results in paper PMC2852139 (Biochemistry, 2010).

For this assay, the target named is T1, Apaf-1 (Homo sapiens, UniProt O14727).
T1 sequence (O14727 1-1248): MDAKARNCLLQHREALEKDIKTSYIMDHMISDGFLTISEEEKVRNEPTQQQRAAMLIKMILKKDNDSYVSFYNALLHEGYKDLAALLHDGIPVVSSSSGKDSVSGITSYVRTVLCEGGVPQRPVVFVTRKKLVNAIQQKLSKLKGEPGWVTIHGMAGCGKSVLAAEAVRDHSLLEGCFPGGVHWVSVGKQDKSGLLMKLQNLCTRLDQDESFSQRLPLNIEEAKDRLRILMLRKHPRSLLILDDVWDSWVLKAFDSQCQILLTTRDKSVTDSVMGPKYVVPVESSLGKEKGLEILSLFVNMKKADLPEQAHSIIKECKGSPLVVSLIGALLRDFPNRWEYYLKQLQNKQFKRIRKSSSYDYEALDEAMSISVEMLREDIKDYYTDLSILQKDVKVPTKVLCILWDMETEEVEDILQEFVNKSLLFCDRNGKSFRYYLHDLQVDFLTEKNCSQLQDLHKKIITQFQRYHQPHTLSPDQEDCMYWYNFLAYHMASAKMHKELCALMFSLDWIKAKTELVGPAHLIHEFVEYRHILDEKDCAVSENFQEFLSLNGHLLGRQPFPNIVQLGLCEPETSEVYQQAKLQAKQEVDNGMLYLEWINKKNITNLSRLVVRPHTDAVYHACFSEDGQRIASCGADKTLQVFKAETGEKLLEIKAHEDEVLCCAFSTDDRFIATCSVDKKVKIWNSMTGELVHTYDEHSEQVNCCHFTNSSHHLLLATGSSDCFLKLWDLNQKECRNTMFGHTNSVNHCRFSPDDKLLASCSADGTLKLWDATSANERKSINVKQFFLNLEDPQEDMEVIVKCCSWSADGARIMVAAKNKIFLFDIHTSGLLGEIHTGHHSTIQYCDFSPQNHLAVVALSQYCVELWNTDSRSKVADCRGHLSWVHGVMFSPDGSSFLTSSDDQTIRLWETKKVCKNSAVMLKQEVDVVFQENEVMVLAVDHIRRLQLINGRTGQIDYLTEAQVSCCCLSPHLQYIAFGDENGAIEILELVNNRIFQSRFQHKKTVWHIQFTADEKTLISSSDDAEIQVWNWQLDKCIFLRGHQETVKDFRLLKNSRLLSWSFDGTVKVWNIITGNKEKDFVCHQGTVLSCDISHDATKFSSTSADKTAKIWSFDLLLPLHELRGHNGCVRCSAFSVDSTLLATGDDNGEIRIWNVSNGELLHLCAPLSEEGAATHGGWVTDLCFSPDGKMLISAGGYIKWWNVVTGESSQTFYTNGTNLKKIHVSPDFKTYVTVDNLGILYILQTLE
T1 sequence (P06454 2-111 partner): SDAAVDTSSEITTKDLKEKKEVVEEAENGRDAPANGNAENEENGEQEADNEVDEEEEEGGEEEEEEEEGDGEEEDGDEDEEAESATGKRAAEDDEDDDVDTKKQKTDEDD
Put plainly: ELISA and FLAG-IP of recombinant Apaf-1/ProT interaction blocked by BETT. The assay is classed as biochemical. On the technique in general: ELISA stands for enzyme-linked immunosorbent assay.

For `Sc1nnc(-c2cc3ccccc3o2)n1-c1ccccc1` [BETT, 5-(2-Benzofuryl)-4-phenyl-1,2,4-triazole-3-thiol], the concentration giving a half-maximal response (EC50) (commonly the concentration that produces a half-maximal response) was about 50 µM.
